Among the data in patent publication US10787483B2, “Antimicrobial peptidomimetics” (Agency for Science, Technology and Research, priority 2014, dated 2020) are MIC values, retold here.

Molecules are shown by their SMILES. Converted amounts (≈) assume the structure as drawn. Square brackets hold non-standard residues; d marks the D form. Peptide text beside a SMILES is read from it. * marks the point of attachment. Phe(4-guanidino) = N=C(N)Nc1ccc(C[C@H](N)C(=O)O)cc1; Bip = N[C@@H](Cc1ccc(-c2ccccc2)cc1)C(=O)O; Agmatine = N=C(N)NCCCCN*; Orn = NCCC[C@H](N)C(=O)O

One test relates to MRSA (ATCC 33591). The test is described as follows: MIC determination by broth microdilution vs. MRSA (ATCC 33591). The class given is cell-based, Staphylococcus aureus. As to conditions: Staphylococcus aureus. As to the method: Using a sterile loop, 3 to 5 isolated colonies of bacteria of the same morphological appearance are selected from the overnight agar plate. The colonies are transferred into a conical flask containing 5 mL of liquid medium (i.e. Mueller-Hinton broth). The broth is incubated at 37° C. in a shaker at 220 rpm until it reaches a turbidity that is equal to the turbidity of a McFarland Standard 0.5 (correspond to 1×10^8 cfu/mL). This culture growth step will require 1-2 hours depending on the bacteria tested.
During this pause period, an antibacterial dilution is prepared. Therefore an antibacterial stock solution is diluted in Mueller-Hinton broth. The concentration of DMSO is kept at 5%. 100 μL of the antibacterial solution are dispensed into the first well of a row. 50 μL of medium containing 0.5% of DMSO are dispensed to the rest of the wells. A 2-fold serial dilution is achieved by transferring 50 μL from the first well (containing the highest concentration of antibacterial) into the second well, and continuing like this until the 10th well in the row. The final 50 μL are discarded so that every well has 50 μL of each antibacterial dilution.
The 11th well was used as the growth control well (medium with bacterial inoculums, no antibacterial) while the 12th well was the sterility control well (medium only).
The bacterial suspension prepared above is mixed thoroughly, and diluted by a factor of 1:100 in the sterile medium. Each well and the growth control well is inoculated with 50 μL of the bacterial suspension. […] To the sterility control well 50 μL of sterile medium are added in place of the bacterial suspension. 10 μL aliquot from the growth control well is removed immediately after inoculating the plate and pipetted it into a sterile Eppendorf tube holding 990 μL of sterile broth. It is mixed well by vortexing. This suspension is further diluted (1:10) by pipetting 100 μL into 900 μL of sterile broth and mixing it well. 100 μL of each of the two dilutions are plated onto two different antibacterial-free agar plates. A sterile cell spreader is used to spread the liquid. Then the plate is sealed with a transparent adhesive film. The microtiter plate and agar plates are incubated at 37° C. for 16-20 hours or until satisfactory growth is obtained. The colonies on the agar plate are counted the next day to verify that the right number of cfu was inoculated. The plate is agitated in the SpectraMax spectrophotometer for 90 s and the OD600 for all the wells in the plate is recorded.
For `N=C(N)NCCCCNC(=O)CN(Cc1ccc(-c2ccccc2)cc1)C(=O)[C@H](CCCNC(=N)N)NC(=O)[C@@H](N)Cc1ccc(-c2ccccc2)cc1` [Compound 10], 3.12 µM (≈ 2.29 µg/mL) was the least that counted as inhibitory (MIC).

`N=C(N)NCCCCNC(=O)CN(Cc1ccc(-c2ccccc2)cc1)C(=O)[C@@H](CCCNC(=N)N)NC(=O)[C@H](N)Cc1ccc(-c2ccccc2)cc1` [Compound 11] had an MIC of 12.5 µM (≈ 9.16 µg/mL).

Staying with this test, now noted: Staphylococcus aureus; MRSA (ATCC 33591); read-out: MIC.
As to `N=C(N)NCCCCNC(=O)[C@@H](Cc1ccc(-c2ccccc2)cc1)NC(=O)[C@H](CCCNC(=N)N)NC(=O)[C@@H](N)Cc1ccc(-c2ccccc2)cc1` [Compound 2], the MIC is 12.5 µM (≈ 9.16 µg/mL).

As for `N=C(N)NCCCCNC(=O)[C@H](Cc1ccc(-c2ccccc2)cc1)NC(=O)[C@@H](CCCNC(=N)N)NC(=O)[C@@H](N)Cc1ccc(-c2ccccc2)cc1` [Compound 3], the MIC worked out at 25 µM (≈ 18.3 µg/mL).

On to `N=C(N)NCCCCNC(=O)[C@H](Cc1ccc(-c2ccccc2)cc1)NC(=O)[C@H](CCCNC(=N)N)NC(=O)[C@H](N)Cc1ccc(-c2ccccc2)cc1` [Compound 4], for which the MIC was found to be 25 µM (≈ 18.3 µg/mL).

`N=C(N)NCCC[C@H](NC(=O)[C@@H](N)Cc1ccc(-c2ccccc2)cc1)C(=O)N[C@@H](Cc1ccc(-c2ccccc2)cc1)C(=O)NCCCCNC(N)=O` [Compound 5]: the MIC worked out at 25 µM (≈ 18.3 µg/mL).

Regarding `N=C(N)NCCC[C@H](NC(=O)[C@@H](N)Cc1ccc(-c2ccccc2)cc1)C(=O)N[C@@H](Cc1ccc(-c2ccccc2)cc1)C(=O)N[C@H]1CC[C@@H](NC(=N)N)CC1` [Compound 6], the MIC came to 6.25 µM (≈ 4.74 µg/mL).

As for `N=C(N)NCCC[C@H](NC(=O)[C@@H](N)Cc1ccc(-c2ccccc2)cc1)C(=O)N[C@@H](Cc1ccc(-c2ccccc2)cc1)C(=O)N[C@H]1CC[C@H](NC(=N)N)CC1` [Compound 7], the MIC was found to be 6.25 µM (≈ 4.74 µg/mL).

For `N=C(N)NCCCCNC(=O)[C@H](Cc1ccccc1)NC(=O)[C@H](CCCNC(=N)N)NC(=O)[C@@H](N)Cc1ccc(-c2ccccc2)cc1` [Compound 8] (H-[Bip]-Arg-Phe-Agmatine), the MIC is 25 µM (≈ 16.4 µg/mL).

Take `N=C(N)NCCCCNC(=O)[C@H](Cc1ccc2ccccc2c1)NC(=O)[C@H](CCCNC(=N)N)NC(=O)[C@@H](N)Cc1ccc(-c2ccccc2)cc1` [Compound 9]: the MIC is 50 µM (≈ 35.3 µg/mL).

With `N=C(N)NCCCCNC(=O)[C@H](Cc1ccc(Cl)cc1)NC(=O)[C@H](CCCNC(=N)N)NC(=O)[C@@H](N)Cc1ccc(-c2ccccc2)cc1` [Compound 12], the MIC was 12.5 µM (≈ 8.64 µg/mL).

Take `N=C(N)NCCCCNC(=O)[C@H](Cc1ccc(-c2ccccc2)cc1)NC(=O)[C@H](CCCCN)NC(=O)[C@@H](N)Cc1ccc(-c2ccccc2)cc1` [Compound 13] (H-[Bip]-Lys-[Bip]-Agmatine): the MIC worked out at 6.25 µM (≈ 4.41 µg/mL).

In the case of `N=C(N)NCCCCNC(=O)[C@H](Cc1ccc(-c2ccccc2)cc1)NC(=O)[C@H](CCCN)NC(=O)[C@@H](N)Cc1ccc(-c2ccccc2)cc1` [Compound 14] (H-[Bip]-[Orn]-[Bip]-Agmatine), the MIC worked out at 12.5 µM (≈ 8.64 µg/mL).

Regarding `C/N=C(/NC)NCCC[C@H](NC(=O)[C@@H](N)Cc1ccc(-c2ccccc2)cc1)C(=O)N[C@@H](Cc1ccc(-c2ccccc2)cc1)C(=O)NCCCCNC(=N)N` [Compound 15], the MIC was 12.5 µM (≈ 9.51 µg/mL).

Take `N=C(N)NCCCCNC(=O)[C@H](Cc1ccc(-c2ccccc2)cc1)NC(=O)[C@H](CNC(=N)N)NC(=O)[C@@H](N)Cc1ccc(-c2ccccc2)cc1` [Compound 16]: the MIC was determined as 25 µM (≈ 17.6 µg/mL).

With `N=C(N)NCCCCNC(=O)[C@H](Cc1ccc(-c2ccccc2)cc1)NC(=O)[C@H](Cc1ccc(NC(=N)N)cc1)NC(=O)[C@@H](N)Cc1ccc(-c2ccccc2)cc1` [Compound 17] (H-[Bip]-[Phe(4-guanidino)]-[Bip]-Agmatine), the MIC stood at 6.25 µM (≈ 4.88 µg/mL).

`CN(C(=O)[C@H](CCCNC(=N)N)NC(=O)[C@@H](N)Cc1ccc(-c2ccccc2)cc1)[C@@H](Cc1ccc(-c2ccccc2)cc1)C(=O)NCCCCNC(=N)N` [Compound 18]: the MIC worked out at 6.25 µM (≈ 4.67 µg/mL).

Regarding `N=C(N)NCCCCNC(=O)[C@H](Cc1ccc(-c2ccccc2)cc1)NC(=O)[C@H](CCCCNC(=N)N)NC(=O)[C@@H](N)Cc1ccc(-c2ccccc2)cc1` [Compound 19], the minimal inhibitory concentration (MIC) stood at 6.25 µM (≈ 4.67 µg/mL).

For orientation: MIC means the lowest concentration that inhibits growth of the organism.
